Assay results from ChEMBL document CHEMBL3822394, “Discovery of a Potent, Selective, Orally Bioavailable, and Efficacious Novel 2-(Pyrazol-4-ylamino)-pyrimidine Inhibitor of the Insulin-like Growth Factor-1 Receptor (IGF-1R)” (J Med Chem, 2016).
In brackets after ≈: the same amount, converted by molar mass. Blank lines part the entries; values can stand above or below the compound they belong to. Activity calls are given as the source filed them. The calls are words filed in the database; no cut-off is given here.

Experiments:
[1] = Clearance in Han Wistar rat blood at 2 or 4 umol/kg, iv or 10 umol/kg, po; assay type: ADME, organism-based; settings: whole blood
[2] = Fraction unbound in rat plasma by equilibrium dialysis; assay type: ADME, cell-free
[3] = Oral bioavailability in Han Wistar rat blood at 10 umol/kg; assay type: ADME, organism-based; settings: whole blood
[4] = Thermodynamic solubility of the compound in aqueous phosphate buffer at pH 7.4 at 25 degC after 24 hrs by LC-UV method; assay type: physicochemical; settings: read-out: Therm_solubility
[5] = Octanol-buffer partition co-efficient, log D of the compound at pH 7.4 by shake-flask method; assay type: physicochemical
[6] = Intrinsic clearance in rat hepatocytes assessed per 10^6 cells; assay type: ADME, cell-based, Hepatocyte; settings: read-out: CLH
[7] = Volume of distribution at steady state in Han Wistar rat blood at 2 or 4 umol/kg, iv or 10 umol/kg, po; assay type: ADME, organism-based; settings: whole blood, read-out: Vdss
[8] = target: Cyclin-dependent kinase 2 (Homo sapiens, UniProt P24941)
[9] = Clearance in Beagle dog plasma at 1 or 4 umol/kg, iv or 10 umol/kg, po; assay type: ADME, organism-based, Canis lupus familiaris
[10] = Intrinsic clearance in dog hepatocytes assessed per 10^6 cells; assay type: ADME, cell-based, Canis lupus familiaris, Hepatocyte; settings: read-out: CLH
[11] = Oral bioavailability in Han Wistar rat plasma at 10 umol/kg; assay type: ADME, organism-based
[12] = Fraction unbound in dog plasma by equilibrium dialysis; assay type: ADME, cell-free, Canis lupus familiaris
[13] = Clearance in Han Wistar rat plasma at 2 or 4 umol/kg, iv or 10 umol/kg, po; assay type: ADME, organism-based
[14] = Oral bioavailability in Beagle dog at 10 umol/kg; assay type: ADME, organism-based, Canis lupus familiaris; settings: in vivo
[15] = Volume of distribution at steady state in Beagle dog at 1 or 4 umol/kg, iv or 10 umol/kg, po; assay type: ADME, organism-based, Canis lupus familiaris; settings: in vivo, read-out: Vdss
[16] = Intrinsic clearance in human hepatocytes assessed per 10^6 cells; assay type: ADME, cell-based, Hepatocyte; settings: read-out: CLH
[17] = Volume of distribution at steady state in Han Wistar rat plasma at 2 or 4 umol/kg, iv or 10 umol/kg, po; assay type: ADME, organism-based; settings: read-out: Vdss
COLO 205 [18] = assay: Antitumor activity against human COLO205 cells xenografted in nude mouse assessed as tumor growth inhibition at 50 mg/kg, po for 2 days per week; assay type: functional, organism-based
[19] = Cmax in nude mouse at 50 mg/kg, po; assay type: ADME, organism-based; parameters: dose 50 mg/kg, route oral; settings: in vivo
P12 [20] = assay: Antitumor activity against mouse P12 cells allografted in nu/nu mouse assessed as tumor growth inhibition at 12.5 to 25 mg/kg, po qd for 7 days; assay type: functional, organism-based
COLO 205 [21] = assay: Potentiation of gemcitabine-induced antitumor activity against human COLO205 cells xenografted in nude mouse assessed as tumor growth inhibition at 25 mg/kg, po for 2 weeks; assay type: functional, organism-based
P12 [22] = assay: Inhibition of IGF1R phosphorylation in mouse P12 cells allografted in po dosed nu/nu mouse administered as single dose measured after 1 to 2 hrs post dosing; assay type: functional, organism-based
COLO 205 [23] = assay: Potentiation of gemcitabine-induced antitumor activity against human COLO205 cells xenografted in nude mouse assessed as increase in stasis at 50 mg/kg, po for 1 week; assay type: functional, organism-based
COLO 205 [24] = assay: Potentiation of gemcitabine-induced antitumor activity against human COLO205 cells xenografted in nude mouse assessed as tumor growth inhibition at 50 mg/kg, po for 1 week followed by drug cessation measured after 14 days; assay type: functional, organism-based
Mus musculus = assay: T>IC50 for IGF1R in nude mouse at 50 mg/kg, po
[25] = AUC in nude mouse at 50 mg/kg, po; assay type: ADME, organism-based; settings: in vivo
[26] = target: Cyclin-dependent kinase 9 (Homo sapiens, UniProt P50750)
Sequence of Cyclin-dependent kinase 9 (P50750 whole entry): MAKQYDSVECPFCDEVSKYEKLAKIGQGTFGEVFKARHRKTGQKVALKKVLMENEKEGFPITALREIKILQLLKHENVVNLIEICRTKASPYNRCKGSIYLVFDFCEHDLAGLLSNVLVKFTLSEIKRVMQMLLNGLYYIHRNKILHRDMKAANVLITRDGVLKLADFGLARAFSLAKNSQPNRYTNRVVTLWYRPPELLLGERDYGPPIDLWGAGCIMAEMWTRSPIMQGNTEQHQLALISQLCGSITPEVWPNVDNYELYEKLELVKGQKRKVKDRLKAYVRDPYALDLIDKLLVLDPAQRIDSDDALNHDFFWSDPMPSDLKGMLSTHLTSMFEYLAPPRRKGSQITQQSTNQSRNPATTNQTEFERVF

[27] = target: Cyclin-dependent kinase 8 (Homo sapiens, UniProt P49336)
Sequence of Cyclin-dependent kinase 8 (P49336 whole entry): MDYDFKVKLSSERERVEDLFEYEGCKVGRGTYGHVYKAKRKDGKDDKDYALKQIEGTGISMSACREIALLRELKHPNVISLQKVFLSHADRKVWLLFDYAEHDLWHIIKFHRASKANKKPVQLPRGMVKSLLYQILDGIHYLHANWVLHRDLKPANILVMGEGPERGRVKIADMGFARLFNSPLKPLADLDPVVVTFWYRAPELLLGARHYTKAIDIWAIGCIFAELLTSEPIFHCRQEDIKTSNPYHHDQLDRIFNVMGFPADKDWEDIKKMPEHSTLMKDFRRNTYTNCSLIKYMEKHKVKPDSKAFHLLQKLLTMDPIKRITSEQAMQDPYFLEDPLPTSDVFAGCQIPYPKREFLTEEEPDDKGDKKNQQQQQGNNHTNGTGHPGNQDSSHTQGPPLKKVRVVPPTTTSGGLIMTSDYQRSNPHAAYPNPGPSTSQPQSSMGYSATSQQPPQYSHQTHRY

[28] = target: Cyclin-dependent kinase 7 (Homo sapiens, UniProt P50613)
Sequence of Cyclin-dependent kinase 7 (P50613 whole entry): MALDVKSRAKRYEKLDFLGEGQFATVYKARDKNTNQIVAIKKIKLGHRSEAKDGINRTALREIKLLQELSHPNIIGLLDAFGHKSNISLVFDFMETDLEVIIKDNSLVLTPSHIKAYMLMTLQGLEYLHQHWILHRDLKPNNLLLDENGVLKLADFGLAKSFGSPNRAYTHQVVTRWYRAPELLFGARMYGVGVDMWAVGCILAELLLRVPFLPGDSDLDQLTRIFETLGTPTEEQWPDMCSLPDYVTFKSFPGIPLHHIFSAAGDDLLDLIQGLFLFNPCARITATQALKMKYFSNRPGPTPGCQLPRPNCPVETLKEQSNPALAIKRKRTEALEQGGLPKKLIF

[29] = target: Cyclin-dependent kinase 1 (Homo sapiens, UniProt P06493)
Sequence of Cyclin-dependent kinase 1 (P06493 whole entry): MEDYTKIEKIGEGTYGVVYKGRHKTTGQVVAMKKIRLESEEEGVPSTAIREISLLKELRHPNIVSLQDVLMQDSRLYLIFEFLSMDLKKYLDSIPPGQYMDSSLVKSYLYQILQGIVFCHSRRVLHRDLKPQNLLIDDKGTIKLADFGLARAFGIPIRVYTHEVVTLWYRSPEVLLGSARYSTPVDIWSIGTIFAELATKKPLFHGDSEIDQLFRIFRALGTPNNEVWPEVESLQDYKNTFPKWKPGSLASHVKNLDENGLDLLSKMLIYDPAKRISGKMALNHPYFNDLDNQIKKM

Cytochrome P450 3A4 = Cytochrome P450 3A4 (Homo sapiens, UniProt P08684)
Sequence of Cytochrome P450 3A4 (P08684 whole entry): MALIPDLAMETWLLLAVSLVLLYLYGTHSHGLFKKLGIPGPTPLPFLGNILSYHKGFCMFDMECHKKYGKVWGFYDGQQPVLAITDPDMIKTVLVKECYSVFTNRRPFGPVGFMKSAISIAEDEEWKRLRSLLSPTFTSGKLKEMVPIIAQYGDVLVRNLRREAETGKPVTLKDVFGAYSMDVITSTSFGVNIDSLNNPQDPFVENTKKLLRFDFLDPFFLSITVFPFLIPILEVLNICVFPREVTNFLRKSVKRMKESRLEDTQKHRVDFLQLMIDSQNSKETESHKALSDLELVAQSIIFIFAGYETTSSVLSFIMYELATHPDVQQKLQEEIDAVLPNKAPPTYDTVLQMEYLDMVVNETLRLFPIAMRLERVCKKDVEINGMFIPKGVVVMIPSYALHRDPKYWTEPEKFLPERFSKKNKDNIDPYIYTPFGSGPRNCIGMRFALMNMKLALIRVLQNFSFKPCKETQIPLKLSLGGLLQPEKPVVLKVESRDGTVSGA

SMILES: CC(=O)N1CCC(n2cc(Nc3ncc(Cl)c(-c4cnn5ccccc45)n3)c(C)n2)CC1
clearance [1]: 62 mL/min/kg | fraction unbound [2]: 0.072 | bioavailability [3]: 9% | solubility thermodynamic at 24 h [4]: 9 µM (≈ 4.06 µg/mL) | logD [5]: 3.2 | hepatocyte CLint [6]: 48 µL/min/1e6 cells | Vd [7]: 1.6 L/kg

SMILES: CC(=O)N1CCC(n2cc(Nc3ncc(Cl)c(-c4cnc5ccccn45)n3)c(C)n2)CC1
IC50 [8]: 135 nM | logD [5]: 2.8

SMILES: Cc1nn(C2CCN(C(=O)CO)CC2)c(C)c1Nc1ncc(Cl)c(-c2cnn3ccccc23)n1
clearance [9]: 5 mL/min/kg | hepatocyte CLint [10]: 6.4 µL/min/1e6 cells | bioavailability [11]: 81% | fraction unbound [12]: 0.12 | fraction unbound [2]: 0.091 | clearance [13]: 8 mL/min/kg | bioavailability [14]: 6% | Vd [15]: 1.6 L/kg | hepatocyte CLint [16]: < 3 µL/min/1e6 cells | solubility thermodynamic at 24 h [4]: 2 µM (≈ 0.962 µg/mL) | logD [5]: 2.6 | hepatocyte CLint [6]: 12 µL/min/1e6 cells | Vd [17]: 1.2 L/kg

SMILES: Cc1nn(C2CCN(C(=O)[C@@H](C)N)CC2)c(C)c1Nc1ncc(Cl)c(-c2cnn3ccccc23)n1
solubility thermodynamic at 24 h [4]: 620 µM (≈ 306 µg/mL) | logD [5]: 1.7

SMILES: Cc1nn(C2CCN(C(=O)[C@H](C)O)CC2)c(C)c1Nc1ncc(Cl)c(-c2cnn3ccccc23)n1
solubility thermodynamic at 24 h [4]: 17 µM (≈ 8.41 µg/mL) | logD [5]: 2.8

SMILES: Cc1nn(C2CCN(C(=O)[C@@H](C)O)CC2)c(C)c1Nc1ncc(Cl)c(-c2cnn3ccccc23)n1
clearance [9]: 7 mL/min/kg | hepatocyte CLint [10]: 8.1 µL/min/1e6 cells | bioavailability [11]: 58% | fraction unbound [12]: 0.12 | TGI (COLO 205 [18]): Active | fraction unbound [2]: 0.18 | clearance [13]: 15 mL/min/kg | bioavailability [14]: 38% | Vd [15]: 1.3 L/kg | hepatocyte CLint [16]: < 3 µL/min/1e6 cells | Cmax [19]: 12 µM | TGI (P12 [20]): Active | TGI (COLO 205 [21]): Active | solubility thermodynamic at 24 h [4]: 17 µM (≈ 8.41 µg/mL) | logD [5]: 2.9 | hepatocyte CLint [6]: 21 µL/min/1e6 cells | inhibition (P12 [22]): Dose-dependent effect | Activity (COLO 205 [23]): Active | Vd [17]: 0.8 L/kg | TGI (COLO 205 [24]): Active | Time (Mus musculus): 8 h | AUC [25]: 30 µM·h

SMILES: CCc1c(Nc2ncc(Cl)c(-c3cnn4ccccc34)n2)cnn1C1CCN(C(C)=O)CC1
logD [5]: 3.3

SMILES: CC(=O)N1CCC(n2cc(Nc3ncc(Cl)c(-c4cnc5ccccn45)n3)cn2)CC1
IC50 [26]: 37 nM | IC50 [8]: 25 nM | IC50 [27]: 42 nM | logD [5]: 3.1 | IC50 [28]: 21 nM | IC50 [29]: 66 nM

SMILES: CC(=O)N1CCC(n2ncc(Nc3ncc(Cl)c(-c4cnn5ccccc45)n3)c2C)CC1
clearance [9]: 6 mL/min/kg | hepatocyte CLint [10]: 4.8 µL/min/1e6 cells | bioavailability [11]: 6% | fraction unbound [12]: 0.081 | fraction unbound [2]: 0.057 | clearance [13]: 45 mL/min/kg | bioavailability [14]: 63% | Vd [15]: 0.7 L/kg | hepatocyte CLint [16]: < 3 µL/min/1e6 cells | solubility thermodynamic at 24 h [4]: 9 µM (≈ 4.06 µg/mL) | logD [5]: 3.2 | hepatocyte CLint [6]: 77 µL/min/1e6 cells | Vd [17]: 0.4 L/kg

SMILES: CNC(=O)CN1CCC(n2nc(C)c(Nc3ncc(Cl)c(-c4cnn5ccccc45)n3)c2C)CC1
solubility thermodynamic at 24 h [4]: 15 µM (≈ 7.41 µg/mL) | logD [5]: 3.2

SMILES: COCC(=O)N1CCC(n2nc(C)c(Nc3ncc(Cl)c(-c4cnn5ccccc45)n3)c2C)CC1
solubility thermodynamic at 24 h [4]: 31 µM (≈ 15.3 µg/mL) | logD [5]: 2.8

SMILES: Cc1nn(C2CCN(C(=O)CN)CC2)c(C)c1Nc1ncc(Cl)c(-c2cnn3ccccc23)n1
solubility thermodynamic at 24 h [4]: 260 µM (≈ 125 µg/mL) | logD [5]: 1.3

SMILES: Cc1nn(C2CCN(CC(=O)N(C)C)CC2)c(C)c1Nc1ncc(Cl)c(-c2cnn3ccccc23)n1
solubility thermodynamic at 24 h [4]: 510 µM (≈ 259 µg/mL) | logD [5]: 2.9

SMILES: COc1cc(N2CCN(C(C)=O)CC2)ccc1Nc1ncc(Cl)c(-c2cnn3ccccc23)n1
IC50 (Cytochrome P450 3A4): < 1000 nM | IC50 [8]: 1030 nM | solubility thermodynamic at 24 h [4]: 1 µM (≈ 0.478 µg/mL) | logD [5]: 3.7

Continued, values first:

logD [5]: 3.4
SMILES: CCc1nn(C2CCN(C(C)=O)CC2)cc1Nc1ncc(Cl)c(-c2cnn3ccccc23)n1

logD [5]: 1.1
SMILES: Cc1nn(C2CCNCC2)cc1Nc1ncc(Cl)c(-c2cnc3ccccn23)n1

logD [5]: 2.8
SMILES: CC(=O)N1CCC(n2nc(C)c(Nc3ncc(Cl)c(-c4cnc5ccccn45)n3)c2C)CC1

logD [5]: 3.3
SMILES: COc1nn(C2CCN(C(C)=O)CC2)cc1Nc1ncc(Cl)c(-c2cnn3ccccc23)n1

solubility thermodynamic at 24 h [4]: > 1000 µM | logD [5]: 1.4
SMILES: CNCC(=O)N1CCC(n2nc(C)c(Nc3ncc(Cl)c(-c4cnn5ccccc45)n3)c2C)CC1

solubility thermodynamic at 24 h [4]: 91 µM (≈ 38.5 µg/mL) | logD [5]: 1.2
SMILES: Cc1nn(C2CCNCC2)c(C)c1Nc1ncc(Cl)c(-c2cnn3ccccc23)n1

solubility thermodynamic at 24 h [4]: 670 µM (≈ 331 µg/mL) | logD [5]: 1.7
SMILES: Cc1nn(C2CCN(C(=O)[C@H](C)N)CC2)c(C)c1Nc1ncc(Cl)c(-c2cnn3ccccc23)n1

logD [5]: 0.9
SMILES: Cc1c(Nc2ncc(Cl)c(-c3cnc4ccccn34)n2)cnn1C1CCNCC1

logD [5]: 2.9
SMILES: COc1nn(C2CCN(C(C)=O)CC2)cc1Nc1ncc(Cl)c(-c2cnc3ccccn23)n1

solubility thermodynamic at 24 h [4]: 37 µM (≈ 17.3 µg/mL) | logD [5]: 2.5
SMILES: Cc1nn(C2CCN(CCO)CC2)c(C)c1Nc1ncc(Cl)c(-c2cnn3ccccc23)n1

hepatocyte CLint [10]: 9.6 µL/min/1e6 cells | bioavailability [11]: 61% | fraction unbound [12]: 0.12 | fraction unbound [2]: 0.086 | clearance [13]: 18 mL/min/kg | hepatocyte CLint [16]: 8.9 µL/min/1e6 cells | solubility thermodynamic at 24 h [4]: 4 µM (≈ 1.86 µg/mL) | logD [5]: 3.1 | hepatocyte CLint [6]: 23 µL/min/1e6 cells | Vd [17]: 1.3 L/kg
SMILES: CC(=O)N1CCC(n2nc(C)c(Nc3ncc(Cl)c(-c4cnn5ccccc45)n3)c2C)CC1

logD [5]: 3.5
SMILES: CCOc1nn(C2CCN(C(C)=O)CC2)cc1Nc1ncc(Cl)c(-c2cnn3ccccc23)n1

logD [5]: 2.7
SMILES: CC(=O)N1CCC(n2ncc(Nc3ncc(Cl)c(-c4cnc5ccccn45)n3)c2C)CC1
